IC50 data for one compound are collected here from patent US7659293B2, “α-Amino-N-hydroxy-acetamide derivatives” (Novartis AG, priority 2001, dated 2010).

This assay concerns the target T1, MMP1 (collagenase 1) (Homo sapiens, UniProt P03956).
T1 construct: made in house; host or cells: mouse C127 cells, vector pBPV-MMT, secreted into culture medium
T1 sequence (P03956 100-469): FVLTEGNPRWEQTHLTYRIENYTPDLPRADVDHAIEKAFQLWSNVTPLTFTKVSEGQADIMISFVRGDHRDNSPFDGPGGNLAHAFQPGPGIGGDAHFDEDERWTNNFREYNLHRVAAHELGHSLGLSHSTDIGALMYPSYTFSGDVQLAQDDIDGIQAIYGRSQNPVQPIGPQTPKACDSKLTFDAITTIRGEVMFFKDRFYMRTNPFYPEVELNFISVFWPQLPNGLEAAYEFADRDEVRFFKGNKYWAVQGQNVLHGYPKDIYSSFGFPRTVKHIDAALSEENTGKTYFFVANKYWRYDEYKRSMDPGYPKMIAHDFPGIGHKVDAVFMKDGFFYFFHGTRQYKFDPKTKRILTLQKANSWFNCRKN
Description: MMP1 (collagenase 1) fluorogenic substrate inhibition assay. The assay is classed as biochemical. The settings on record: mean ± SEM of three independent experiments. The procedure: The inhibitory activities of compounds of formula I on MT1-MMP, MMP1 (collagenase 1) and MMP2 (gelatinase A) can be determined as follows:
Stock solutions of substrate (MCA-Pro-Leu-Gly-Leu-Dpa-Ala-Arg-NH2 (SEQ ID NO: 1), C. G. Knight, et al, FEBS lett., 296, 263-266, (1992)), are prepared in 100% DMSO at a concentration 1.0 mM.
Stock solutions of inhibitors are prepared in 100% DMSO. The inhibitor is diluted into the assays from a solution in 100% DMSO, and controls substitute an equal volume of DMSO so that the final DMSO concentration from inhibitor and substrate dilutions in all assays is 6.0%. Assays are performed in assay buffer (150 mM NaCl, 10 mM CaCl2, 50 mM Tris-Cl pH7.5, 0.05% Brij-35) containing 6.0% DMSO once the substrate and inhibitor are diluted into it. […] The fluorescence changes are monitored using an excitation wavelength of 320 nm and an emission wavelength of 340 nm. […] The reaction mixture is preincubated with the inhibitor for 30 min, the reaction is started by the addition of MMP enzyme and the fluorescence intensity is measured for 10 min. […]
C127 cells (ATCC-mouse mammary tumor cell line) are grown in Dulbecco's Modified Essential Medium supplemented with 10% heat inactivated fetal bovine serum and 1× antibiotic-antimycotic solution at 37° C. in a humidified CO2 incubator. […] Media from selected clones are analyzed for collagenase expression by an enzymatic assay. […]

SMILES strings stand for the structures. Structures can show the parent of a compound that is named as a salt.

Take `CN(C)c1ccc(CN(CC(=O)NO)S(=O)(=O)c2ccc(OCC3CC3)cc2)cc1` [Example 2, 2-[(4-Cyclopropylmethoxy-benzenesulfonyl)-(4-dimethylamino-benzyl-amino]-N-hydroxy-acetamide HCl salt]: half-maximal inhibition (IC50) required 1.77 ± 0.144 µM.

In general, IC50 refers to the concentration at which inhibition is half-maximal. The low end stands for higher potency, the high end for lower potency.
